From patent US8778403B2, “Diketopiperazine microparticles with defined specific surface areas” (MannKind Corporation, priority 2009, dated 2014)

Assay: Solubility of FDKP as a function of pH
Format: physicochemical

solubility (at neutral or basic pH): readily soluble | solubility (in acid): low solubility
SMILES: O=C(O)/C=C/C(=O)NCCCCC1NC(=O)C(CCCCNC(=O)/C=C/C(=O)O)NC1=O (centres unmarked) [FDKP, bis-3,6-(N-fumaryl-4-aminobutyl)-2,5-diketo-diketopiperazine]
